Laboratory results from ChEMBL document CHEMBL5614388, “FLT3-PROTACs for combating AML resistance: Analytical overview on chimeric agents developed, challenges, and future perspectives” (Eur J Med Chem, 2024).
Each block holds one compound with its values, some of them ahead of it.

Tests used:
MV4-11 [1] = assay: Antiproliferative activity against human MV4-11 cells assessed as reduction in cell viability measured after 48 hrs by CellTiter-Glo assay; assay type: functional, cell-based; settings: MV4-11, 48 h
Kasumi 1 = assay: cells; settings: Homo sapiens, Kasumi 1, 72 h
Description: Antiproliferative activity against human Kasumi 1 cells assessed as reduction in cell viability incubated for 72 hrs by Cell-titer glo luminescent assay

MV4-11 [2] = assay: Antiproliferative activity against human MV4-11 cells assessed as reduction in cell growth; assay type: functional, cell-based
MV4-11 [3] = assay: Antiproliferative activity against human MV4-11 cells assessed as reduction in cell growth incubated for 48 hrs by CCK-8 assay; assay type: functional, cell-based; settings: MV4-11, 48 h
BaF3 [4] = assay: Antiproliferative activity against mouse BaF3 cells expressing FLT3-ITD D835Y mutant incubated for 48 hrs by CCK8 assay; assay type: functional, cell-based; settings: BaF3, 48 h
MOLM-13 = assay: Antiproliferative activity against human MOLM-13 cells assessed as reduction in cell viability incubated for 48 hrs by MTS assay; assay type: functional, cell-based; settings: MOLM-13, 48 h
MV4-11 [5] = assay: Antiproliferative activity against human MV4-11 cells assessed as reduction in cell viability incubated for 48 hrs by MTS assay; assay type: functional, cell-based; settings: MV4-11, 48 h
BaF3 [6] = assay: Antiproliferative activity against mouse BaF3 cells expressing FLT3-ITD F691L mutant incubated for 48 hrs by CCK8 assay; assay type: functional, cell-based; settings: BaF3, 48 h
BaF3 [7] = assay: Antiproliferative activity against mouse BaF3 cells expressing FLT3-ITD mutant incubated for 48 hrs by CCK8 assay; assay type: functional, cell-based; settings: BaF3, 48 h
MV4-11 [8] = assay: cells; settings: Homo sapiens
Description: Antiproliferative activity against human MV4-11 cells assessed as reduction in cell viability by WAT-8 reagent based analysis

SMILES: Cc1[nH]c(/C=C2\C(=O)Nc3ccc(F)cc32)c(C)c1C(=O)NCCCCCCNc1cccc2c1C(=O)N(C1CCC(=O)NC1=O)C2=O (stereo not given)
EC50 (Kasumi 1): 21.3 nM

SMILES: CCc1nc(C(N)=O)c(Nc2ccc(N3CCN(CN4CCN(c5ccc6c(c5)C(=O)N(C5CCC(=O)NC5=O)C6=O)CC4)CC3)c(OC)c2)nc1NC1CCOCC1 (stereo not given)
IC50 (MV4-11 [3]): 1.66 nM

SMILES: CCc1nc(C(N)=O)c(Nc2ccc(N3CCC(N4CCN(C)CC4)CC3)c(OC)c2)nc1NC1CCOCC1 [GILTERITINIB]
IC50 (MV4-11 [8]): 0.9 nM

Results, then the compound that gave them:

IC50 (MV4-11 [1]): 4.83 nM
SMILES: CC(C)(C)c1cc(NC(=O)Nc2ccc(-c3cn(CCCCc4cn(CCCCC(=O)Nc5cccc6c5CN(C5CCC(=O)NC5=O)C6=O)nn4)c4ncnc(N)c34)cc2)no1 (stereo not given)

IC50 (MV4-11 [2]): 92 nM
SMILES: O=C(CCCCCCC(=O)Nc1cc(-c2ccc3ncn(Cc4c(Cl)cccc4Cl)c3c2)[nH]n1)NO

IC50 (BaF3 [4]): 11.1 nM | IC50 (MOLM-13): 0.83 nM | IC50 (MV4-11 [5]): 1.1 nM | IC50 (BaF3 [6]): 14.5 nM | IC50 (BaF3 [7]): 1.8 nM
SMILES: CCCNc1nc(Nc2ccc(C#N)cc2)ncc1C#CCCCNC(=O)[C@H](C)N(C)C(=O)/C=C/CN(C)C [FF-10101]
